US20240384268A1, “Oligonucleotides” (Hudson Institute of Medical Research, priority 2021, published 2024)

Target: T1, human TLR9 (Homo sapiens, UniProt Q9NR96)
T1 construct: HA; host or cells: 293XL-hTLR9-HA (HEK293)
T1 sequence (Q9NR96 26-1032): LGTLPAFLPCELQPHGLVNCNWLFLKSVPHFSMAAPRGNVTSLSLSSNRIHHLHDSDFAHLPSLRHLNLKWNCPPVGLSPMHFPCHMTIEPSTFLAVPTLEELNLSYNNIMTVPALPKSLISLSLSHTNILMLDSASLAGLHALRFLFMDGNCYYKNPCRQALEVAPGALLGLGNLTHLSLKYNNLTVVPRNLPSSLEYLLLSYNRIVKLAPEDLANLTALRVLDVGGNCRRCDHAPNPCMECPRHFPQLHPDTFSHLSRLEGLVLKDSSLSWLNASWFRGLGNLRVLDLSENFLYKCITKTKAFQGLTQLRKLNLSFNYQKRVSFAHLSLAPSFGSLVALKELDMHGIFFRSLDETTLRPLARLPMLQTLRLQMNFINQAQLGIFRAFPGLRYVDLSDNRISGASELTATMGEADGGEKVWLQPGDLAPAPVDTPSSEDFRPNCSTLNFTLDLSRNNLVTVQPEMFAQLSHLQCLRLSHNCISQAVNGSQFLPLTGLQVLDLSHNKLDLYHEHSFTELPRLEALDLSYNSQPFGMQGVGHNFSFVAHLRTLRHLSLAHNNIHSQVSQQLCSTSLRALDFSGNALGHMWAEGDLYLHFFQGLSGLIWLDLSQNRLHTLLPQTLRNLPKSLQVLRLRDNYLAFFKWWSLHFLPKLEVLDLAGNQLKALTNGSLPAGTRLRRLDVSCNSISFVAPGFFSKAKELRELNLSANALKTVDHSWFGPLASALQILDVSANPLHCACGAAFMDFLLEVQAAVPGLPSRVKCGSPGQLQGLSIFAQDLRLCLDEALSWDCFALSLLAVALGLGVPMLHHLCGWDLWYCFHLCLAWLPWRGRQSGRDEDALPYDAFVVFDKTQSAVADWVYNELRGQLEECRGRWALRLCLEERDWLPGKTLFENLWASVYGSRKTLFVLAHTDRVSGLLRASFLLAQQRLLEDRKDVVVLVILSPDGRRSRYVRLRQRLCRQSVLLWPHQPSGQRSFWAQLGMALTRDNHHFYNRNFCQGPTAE
Assay: HEK-TLR9 NF-κB-luciferase reporter, ODN2006 stimulation
Type: cell-based
Conditions: averaged NF-κB-Luciferase relative to ODN2006 condition; for TLR9 100 nM: MOE-modified ASO at 100 nM; for TLR9 500 nM: MOE-modified ASO at 500 nM

Sequence	TLR9 100 nM	TLR9 500 nM
GTCCTTGCACGTGGCTTCGT (antisense; 2'-MOE modified, pattern not given here) [EGFR-1013 MOE]	0.682	0.602
GTCTTGGCTTCGTGGAGCAG (antisense; 2'-MOE modified, pattern not given here) [MB21D1-520 MOE]	0.709	0.599
GTGTCCTTGCACGTGGCTTC (antisense; 2'-MOE modified, pattern not given here) [EGFR-1015 MOE]	0.784	0.641
GTGTCTTCATCGGCCCTGCC (antisense; 2'-MOE modified, pattern not given here) [CAMSAP1-2113 MOE]	0.611	0.201
TAGGCACTTTGCCTCCTTCT (antisense; 2'-MOE modified, pattern not given here) [EGFR-2859 MOE]	0.808	0.914
TAGTCAAGGGCATATCCTAC (antisense; 2'-MOE modified, pattern not given here) [HPRT-732 MOE]	0.787	0.462
TCAAAGGACTGAGGAAAGGG (antisense; 2'-MOE modified, pattern not given here) [CAMSAP1-6273 MOE]	0.265	0.040
TCCAACACTTCGTGGGGTCC (antisense; 2'-MOE modified, pattern not given here) [HPRT-667 MOE]	0.792	0.616
TCGCACTTCAGTCTGAGCAG (antisense; 2'-MOE modified, pattern not given here) [MB21D1-719 MOE]	0.521	0.266
TGTCCTTGCACGTGGCTTCG (antisense; 2'-MOE modified, pattern not given here) [EGFR-1014 MOE]	0.764	0.623
TGTCTTCATCGGCCCTGCCT (antisense; 2'-MOE modified, pattern not given here) [CAMSAP1-2112 MOE]	0.697	0.480
TGTGATGGCCTCCCATCTCC (antisense; 2'-MOE modified, pattern not given here) [HPRT-332 MOE]	0.674	0.782
TTCTGCAGCTTCCTTGTCCT (antisense; 2'-MOE modified, pattern not given here) [CTNN2B-2136 MOE]	0.746	0.467
TTGCACACTTCGTACCCAAA (antisense; 2'-MOE modified, pattern not given here) [CAMSAP1-4915 MOE]	0.894	0.524
TTGCCATGCTGGCTCGGACT (antisense; 2'-MOE modified, pattern not given here) [CAMSAP1-2584 MOE]	0.516	0.534
TTGGCTCGGCTTGCCTACTT (antisense; 2'-MOE modified, pattern not given here) [CAMSAP1-5594 MOE]	0.705	0.445
